Experiments:
[1] = system: S. aureus MW2; experiment: Broth dilution susceptibility / growth inhibition assay, Muller Hinton broth; type: cell-based, Staphylococcus aureus; conditions: growth inhibition of S. aureus MW2
Method: Subsequently, the susceptibility of S. aureus MW2 strain to Ceftriaxone, Cefotaxime, Inh2, and Inh2-B1 was confirmed by the CLSI recommended serial dilution method using Muller Hinton broth. Minimum bactericidal activity (MBC) was measured using Muller-Hinton agar. Changes in the MBC of Ceftriaxone/Cefotaxime in the presence of serially diluted Inh2-B1 was determined in two steps. Initial screening was carried out using the Checkerboard method using Muller-Hinton agar (FIG. 15). […] Subsequent time to kill assays were carried out using 50 μM Inh2-B1 and Ceftriaxone. Cefotaxime (1 μg/ml) in a final volume of 250 μl using a sterile 96-well (U-bottom) microtiter plate over a period of 16 h at 37° C. under constant rotation (120 rpm). Optical density and corresponding CFU counts were measured at every two-hour interval up to 8 hours with a final overnight reading at the end of incubation period. CFU counts were measured using appropriate dilution of 10 μl of properly mixed samples at each time interval. All experiments were performed in three biological replicates and the statistical analysis of the results obtained at each time point was carried out by the non-parametric t-test with Welch's correction using GraphPad Prism 6 software.

[2] = system: S. aureus STK1 / STKK1; experiment: Solid-phase ATP affinity chromatography, elution of bound kinase by inhibitor, Western blot; type: binding
Method: (§1) An overnight culture of S. aureus MW2 strain was centrifuged, and the resulting bacterial pellet was resuspended in lysostaphin digestion buffer (50 mM Tris/HCl buffer, pH 7.5, containing 5 μg/ml DNAse/RNAse and protease inhibitor cocktail) in 1/10 the volume of the original culture volume. The latter was then subjected to lysostaphin treatment (15 U/ml). The lysostaphin digest was sonicated (5 sec pulse at every 10 sec for 10 min at 50% of 130 W, […]), and the debris free whole cell lysate was obtained after centrifugation (10.000×g, 10 min, 4° C.). […] The column was then washed with ten column volumes of binding buffer. Subsequently, the bound proteins were eluted with the 10-column volume of buffer containing 50 μM Inh-2 and Inh2-B1. S. aureus crude lysate, the last fraction of the column washing step, and eluted fractions were resolved by SDS-PAGE and electroblotted onto a PVDF membrane. […] A similar experiment was performed using S. pyogenes whole cell lysates obtained from phage lysin-digested S. pyogenes M1T1 strain using the anti-SP-STK antibody as described previously using to determine the specificity of the inhibitor for S. aureus STK1.

[3] = system: S. pyogenes SP-STK / SP-STKK; experiment: as above; type: binding; conditions: purified recombinant protein
Method: as §1

[4] = system: S. aureus MW2ΔSTK1 biofilms; experiment: Biofilm formation, crystal violet stain method; type: cell-based, Staphylococcus aureus; conditions: 25 μM, further 48 h
[5] = system: BEAS-2B cells; experiment: LDH release cytotoxicity assay; type: cell-based, human; conditions: 1.56-100 μM, 24 h
Method: (§2) Various concentrations (1.56-100 μM) of the small molecule compounds Inh2-B1 were tested for their cytotoxicity by incubating them for 24 h in the cell lines mentioned above. The cytotoxicity of compounds was determined by measuring the activity of lactate dehydrogenase (LDH) released from the damaged cells during incubation. The LDH assay was performed in triplicate wells. At the end of incubation, the plates were lightly centrifuged, and the culture supernatants were examined for the presence of LDH activity using Cytotoxicity Detection Kit (Promega) per the manufacturer's instructions. LDH activity was detected spectrophotometrically (Molecular device, 490 nm) and normalized to the total LDH activity (100%) in cell lysate of the untreated cells. Background value obtained with untreated culture supernatant was subtracted before data evaluation.

[6] = system: Detroit 562 cells; experiment: LDH release cytotoxicity assay; type: cell-based, human; conditions: 1.56-100 μM, 24 h
Method: as §2

[7] = system: BEAS-2B cells; experiment: MTT cell proliferation assay; type: cell-based, human; conditions: 24 h
Method: (§3) Impact of Inh2-B1 on cell proliferation was determined by MTT (3-[4,5-dimethylthiazol-2-yl]-2,5 diphenyl tetrazolium bromide)-based assay using Roche Colorimetric proliferation assay kit. Cell lines mentioned above were grown in 96-well tissue culture plates in the CO2 incubator at 37° C. The cells were treated with Inh2-B1 as described above in a final volume of 100 μl for 24 h. At the end of incubation, tissue culture medium from each well was removed and replaced with fresh 100 μl of the medium containing MTT solution (0.5 mg/ml) and further incubated for 4 h. The purple color of formazan salt crystals formed in each well was solubilized with the addition of 100 μl of 10% SDS solution in 0.01M HCl and further incubating for 10-12 h. The solubilized formazan product in each well was spectrophotometrically analyzed using a microtiter plate reader (Molecular Devices, 570 nm). Absorbance values of wells containing MTT reagents without cells and the untreated cultured cells with MTT reagents were considered as the background and negative controls. All tests were performed in triplicate wells. The average background value obtained from 10 wells was subtracted from the test values, and the corrected values obtained from untreated and treated cells were statistically analyzed by Student's test. P<0.05 was treated as a significant difference.

[8] = system: Detroit 562 cells; experiment: MTT cell proliferation assay; type: cell-based, human; conditions: even at 100 μM, 24 h
Method: as §3

[9] = system: S. aureus MW2-WT, MW2ΔSTK1 and MW2ΔSTP1 colonies; experiment: Colony hemolysis pattern on TSA blood agar plates; type: cell-based, Staphylococcus aureus; conditions: 50 μM Inh2-B1, MW2-WT, MW2ΔSTK1 or MW2ΔSTP1
From the text: See the increased hemolysis around the colonies of the MW2ΔSTK1 mutant and absence of hemolysis around those of MW2ΔSTP1 mutant as depicted in the enlarged portion of certain representative colonies shown under each panel of the strain. A one centimeter bar is included to facilitate the determination of the relative size of colonies and corresponding hemolytic zones around them.

[10] = Stability in serum and body fluid; type: in vitro ADME

COC(=O)c1ccc2c(=O)[nH]c3c(C(=O)Nc4ccccc4)sc(=S)n3c2c1 [Inh2-B1, Methyl 5-oxo-3-(phenylcarbamoyl)-1-thioxo-4,5dihydro[1,3]thiazolo[3,4-a]quinazoline-8-carboxylate]
concentration at which S. aureus MW2 still grows [1]: > 50 µM | elution of STK1 bound to ATP-column, whole cell lysate of S. aureus MW2 ([2]; eluted with 50 μM inhibitor, anti-STK1 immunoblot): presence of STK1 | elution of purified recombinant S. aureus STKK1 from ATP-column ([2]; purified recombinant protein): could elute only the S. aureus STKK1 protein | elution of purified recombinant S. pyogenes SP-STKK from ATP-column [3]: not S. pyogenes SP-STKK protein | effect on preformed biofilms [4]: did not affect biofilms of MW2ΔSTK1 | cytotoxicity (LDH release) [5]: ~15% | lysis (LDH release) [6]: less than 5% | cell proliferation inhibition (MTT) ([7]; 50 μM): ~20% | cell proliferation inhibition (MTT) ([7]; 100 μM): ~40% | effect on cell proliferation (MTT) [8]: did not affect cell proliferation | hemolysis pattern of colonies [9]: did not show any changes in the hemolysis pattern | stability in the serum and body fluid, such as peritoneal fluid [10]: remain stable

From patent US11318141B2, “Methods and compositions related to STK1-targeted small molecules as antibiotic resistance breakers” (Ohio State Innovation Foundation, priority 2017, dated 2022)
